Experimental data published in patent publication US4782043A, “Renin inhibitors containing a C-terminal amide cycle” (Merck & Co., Inc., priority 1985, dated 1988).
Peptide text beside a SMILES is read from it.

Biological target: T1, human kidney renin (Homo sapiens, UniProt P00797)
T1 construct: human kidney renin purified as described in Bangham; from tissue; host or cells: human kidney
T1 sequence (P00797 67-406): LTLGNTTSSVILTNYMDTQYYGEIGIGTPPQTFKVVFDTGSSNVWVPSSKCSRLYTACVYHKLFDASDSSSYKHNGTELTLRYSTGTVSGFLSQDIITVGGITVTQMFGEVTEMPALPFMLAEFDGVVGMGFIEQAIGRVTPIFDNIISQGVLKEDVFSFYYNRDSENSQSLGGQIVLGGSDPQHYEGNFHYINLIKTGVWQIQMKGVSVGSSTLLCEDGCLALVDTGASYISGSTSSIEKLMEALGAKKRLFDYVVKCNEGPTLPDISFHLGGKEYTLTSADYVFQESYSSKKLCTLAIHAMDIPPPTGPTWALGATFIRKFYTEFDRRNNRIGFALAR
Assay: Human renin inhibition
Format: biochemical
Settings: purified human kidney renin; dissociation constant of enzyme-inhibitor complex
Method: An assay was carried out in order to determine the inhibitory potency of the peptides of the present invention. The assay measured the inhibition of human kidney renin purified as described in Bangham, D. R., Robertson, I., Robinson, J. I. S., Robinson, C. J., and Tree, M., Clinical Science and Molecular Medicine, 48 (Supp. 2): 136s-159s (1975), and further purified by affinity chromatography on pepstatin-aminohexyl-Sepharase as describe in Poe, M., Wu., J. K., Florance, J. R., Radkey, J. A., Bennett, C. D., and Hoagsteen, K., J. Biol. Chem. (1982, in press). The assay was also in accordance with Poe et al. cited above. Results are expressed as KI values, which refer to the dissociation constant of the inhibited enzyme-inhibitor complex. This KI value was obtained as described above. Pepstatin was used as an active control.

Molecule | Ki
CC(C)C[C@@H]1NC(=O)C[C@H](O)[C@H](Cc2ccccc2)NC(=O)[C@@H](NC(=O)C(CCCc2ccccc2)Cc2ccccc2)CCCCNC(=O)[C@H](Cc2ccccc2)NC1=O (single isomer, unassigned) [drawing 41] | 190 nM
CC(C)C[C@@H]1NC(=O)C[C@H](O)[C@H](CC(C)C)NC(=O)[C@@H](NC(=O)[C@H](Cc2ccccc2)NC(=O)[C@@H]2CCCN2C(=O)[C@H](Cc2c[nH]cn2)NC(=O)C(C)C)CCCCNC(=O)[C@H](Cc2ccccc2)NC1=O [drawing 39] (HELM PEPTIDE1{[CC(C)C(=O)[*:2]].H.P.F.K.[CC(C)C[C@H](N[*:1])[C@@H](O)CC(=O)[*:2]].L.F}$PEPTIDE1,PEPTIDE1,5:R3-8:R2$$$V2.0) | 55 nM
CC(C)C[C@@H]1NC(=O)C[C@H](O)[C@H](CC(C)C)NC(=O)[C@@H](NC(=O)[C@H](Cc2ccccc2)NC(=O)OC(C)(C)C)CCCCNC(=O)[C@H](Cc2ccccc2)NC1=O [drawing 40] (HELM PEPTIDE1{[CC(C)(C)OC(=O)[*:2]].F.K.[CC(C)C[C@H](N[*:1])[C@@H](O)CC(=O)[*:2]].L.F}$PEPTIDE1,PEPTIDE1,3:R3-6:R2$$$V2.0) | 64 nM

Test system: hog renin
Assay: not given
Settings: nephrectomized rats after injection of hog renin (Gross et al. 1971); cited from earlier work

Molecule | blood pressure in vivo
Pepstatin | reduce blood pressure in vivo

Biological target: hog kidney renin (Sus scrofa, UniProt A0A287APG1)
Sequence (A0A287APG1 67-407): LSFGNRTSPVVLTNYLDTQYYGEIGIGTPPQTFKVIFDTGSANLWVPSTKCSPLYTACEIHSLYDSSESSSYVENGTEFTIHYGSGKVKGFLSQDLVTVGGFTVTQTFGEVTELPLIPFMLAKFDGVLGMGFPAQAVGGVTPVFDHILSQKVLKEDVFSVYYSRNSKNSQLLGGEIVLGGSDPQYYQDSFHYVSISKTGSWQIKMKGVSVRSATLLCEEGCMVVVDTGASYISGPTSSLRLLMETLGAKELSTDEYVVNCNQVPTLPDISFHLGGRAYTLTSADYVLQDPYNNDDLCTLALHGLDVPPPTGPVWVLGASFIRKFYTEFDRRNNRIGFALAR
Assay: Hog renin inhibition
Format: biochemical
Settings: pH 7.3, concentration producing 50% inhibition of renin activity, read-out: I50
Method: An assay was carried out in order to determine the inhibitory potency of the peptides of the present invention. The assay measured the inhibition of hog kidney renin, and was in accordance with the procedure described in Rich et al., J. Med. Chem. 23: 27, 1980, except that a pH of 7.3 was used. The results of the assay, illustrated in the table below, are expressed as I50 values, which refers to the concentration of peptide inhibitor necessary to produce 50% inhibition of renin activity. This I50 value is obtained typically by plotting data from four inhibitor concentrations. Pepstatin was used as an active control.

Molecule | IC50
CC(C)C[C@@H]1NC(=O)C[C@H](O)[C@H](CC(C)C)NC(=O)[C@@H](NC(=O)[C@H](Cc2ccccc2)NC(=O)[C@@H]2CCCN2C(=O)[C@H](Cc2c[nH]cn2)NC(=O)C(C)C)CCCCNC(=O)CNC(=O)[C@H](Cc2ccccc2)NC1=O (HELM PEPTIDE1{[CC(C)C(=O)[*:2]].H.P.F.K.[CC(C)C[C@H](N[*:1])[C@@H](O)CC(=O)[*:2]].L.F.G}$PEPTIDE1,PEPTIDE1,5:R3-9:R2$$$V2.0) | 1700 nM
CC(C)C[C@@H]1NC(=O)C[C@H](O)[C@H](CC(C)C)NC(=O)[C@@H](NC(=O)[C@H](Cc2ccccc2)NC(=O)[C@@H]2CCCN2C(=O)[C@H](Cc2c[nH]cn2)NC(=O)C(C)C)CCNC(=O)CNC(=O)[C@H](Cc2ccccc2)NC1=O (HELM PEPTIDE1{[CC(C)C(=O)[*:2]].H.P.F.[Dab].[CC(C)C[C@H](N[*:1])[C@@H](O)CC(=O)[*:2]].L.F.G}$PEPTIDE1,PEPTIDE1,5:R3-9:R2$$$V2.0) | 7100 nM
CC(C)C[C@@H]1NC(=O)C[C@H](O)[C@H](CC(C)C)NC(=O)[C@@H](NC(=O)[C@H](Cc2ccccc2)NC(=O)[C@@H]2CCCN2C(=O)[C@H](Cc2c[nH]cn2)NC(=O)C(C)C)CCCNC(=O)CNC(=O)[C@H](Cc2ccccc2)NC1=O (HELM PEPTIDE1{[CC(C)C(=O)[*:2]].H.P.F.[Orn].[CC(C)C[C@H](N[*:1])[C@@H](O)CC(=O)[*:2]].L.F.G}$PEPTIDE1,PEPTIDE1,5:R3-9:R2$$$V2.0) | 2800 nM
CC(C)C[C@@H]1NC(=O)C[C@H](O)[C@H](CC(C)C)NC(=O)[C@@H](NC(=O)[C@H](Cc2ccccc2)NC(=O)[C@@H]2CCCN2C(=O)[C@H](Cc2c[nH]cn2)NC(=O)C(C)C)CCCNC(=O)[C@H](Cc2ccccc2)NC1=O (HELM PEPTIDE1{[CC(C)C(=O)[*:2]].H.P.F.[Orn].[CC(C)C[C@H](N[*:1])[C@@H](O)CC(=O)[*:2]].L.F}$PEPTIDE1,PEPTIDE1,5:R3-8:R2$$$V2.0) | 24000 nM
CC(C)C[C@@H]1NC(=O)C[C@H](O)[C@H](Cc2ccccc2)NC(=O)[C@@H](NC(=O)C(CCCc2ccccc2)Cc2ccccc2)CCCCNC(=O)[C@H](Cc2ccccc2)NC1=O (single isomer, unassigned) [drawing 38] | 26 nM
CC(C)C[C@@H]1NC(=O)C[C@H](O)[C@H](CC(C)C)NC(=O)[C@@H](NC(=O)[C@H](Cc2ccccc2)NC(=O)[C@@H]2CCCN2C(=O)[C@H](Cc2c[nH]cn2)NC(=O)C(C)C)CCCCNC(=O)[C@H](Cc2ccccc2)NC1=O [drawing 31] (HELM PEPTIDE1{[CC(C)C(=O)[*:2]].H.P.F.K.[CC(C)C[C@H](N[*:1])[C@@H](O)CC(=O)[*:2]].L.F}$PEPTIDE1,PEPTIDE1,5:R3-8:R2$$$V2.0) | 230 nM
CC(C)C[C@@H]1NC(=O)C[C@H](O)[C@H](CC(C)C)NC(=O)[C@@H](NC(=O)[C@H](Cc2ccccc2)NC(=O)OC(C)(C)C)CCCCNC(=O)[C@H](Cc2ccccc2)NC1=O [drawing 37] (HELM PEPTIDE1{[CC(C)(C)OC(=O)[*:2]].F.K.[CC(C)C[C@H](N[*:1])[C@@H](O)CC(=O)[*:2]].L.F}$PEPTIDE1,PEPTIDE1,3:R3-6:R2$$$V2.0) | 450 nM
